Measured values reported in the supplement of paper PMC10307832.

Experiments:
[1] = compound: COCC[n+]1c2c(n(Cc3cnccn3)c1C)C(=O)c1ccccc1C2=O [YM155]; assay: relative viability (nuclei count vs DMSO), 5 days (fraction); higher = more cells survive
Procedure, shortened: (§1)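 Vehicle-anchored 1536-well plates of lung cancer cell lines, held overnight at 37 °C, were pinned with five library-drug doses (not always all listed) spaced by √10. No medium change followed over the next 5 days, after which the cells were fixed, permeabilised and Hoechst-stained together and imaged at 4×. Nuclei were counted with MetaXpress, and viability is treated-well nuclei over vehicle-well nuclei, taken as a median across plates. Plates passed with control CV below 25% and at least one doubling.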

[2] = compound: CC(C)(C)c1cc(NC(=O)Nc2ccc(-c3cn4c(n3)sc3cc(OCCN5CCOCC5)ccc34)cc2)no1 [Quizartinib]; assay: as above
Procedure, shortened: as §1

| Cell Line | relative viability ([1]; 0.002 µM) | relative viability ([1]; 0.006325 µM) | relative viability ([1]; 0.02 µM) | relative viability ([1]; 0.06325 µM) | relative viability ([2]; 0.001 µM) | relative viability ([2]; 0.003162 µM) | relative viability ([2]; 0.01 µM) | relative viability ([2]; 0.03162 µM) | relative viability ([2]; 0.1 µM) |
| --- | --- | --- | --- | --- | --- | --- | --- | --- | --- |
| 201T | 0.922 | 1.01 | 1.01 | 0.998 | 1.01 | 1.01 | 0.987 | 0.98 | 0.934 |
| A549 | 1.02 | 0.984 | 0.995 | 0.906 | 0.751 | 0.976 | 0.928 | 0.884 | 1.05 |
| A-427 | 0.883 | 0.951 | 1.03 | 0.941 | 0.771 | 0.982 | 0.979 | 0.922 | 1.05 |
| ABC-1 | 0.707 | 0.61 | 0.396 | 0.219 | 0.771 | 0.825 | 0.817 | 0.673 | 0.913 |
| BEN | 0.899 | 0.972 | 1.09 | 1.11 | 0.906 | 0.982 | 0.94 | 0.813 | 0.972 |
| CAL-12T | 0.928 | 0.998 | 1.08 | 0.719 | 0.92 | 1.06 | 1.05 | 0.821 | 1.11 |
| COR-L23 | 0.988 | 0.912 | 0.689 | 0.281 | 0.952 | 0.939 | 0.992 | 0.979 | 1.05 |
| COR-L 105 | 0.914 | 0.804 | 0.912 | 0.692 | 0.864 | 0.961 | 0.906 | 0.87 | 1.05 |
| Calu-6 | 0.992 | 0.996 | 0.557 | 0.186 | 0.902 | 0.982 | 1.05 | 0.879 | 1.02 |
| ChaGo-K-1 | 0.906 | 1 | 0.987 | 0.918 | 0.773 | 1.05 | 1.01 | 0.851 | 1.05 |
| EBC-1 | 0.954 | 0.971 | 1.07 | 1 | 0.891 | 0.871 | 0.981 | 0.922 | 0.977 |
| EKVX | 0.927 | 1.07 | 1.01 | 0.857 | 0.704 | 1 | 0.99 | 0.935 | 1.05 |
| EMC-BAC-2 | 0.883 | 0.971 | 1.09 | 0.808 | 0.919 | 0.976 | 0.927 |  | 1.05 |
| EPLC-272H | 0.883 | 0.989 | 1.01 | 1.15 | 0.878 | 1.08 | 1.03 | 1.04 | 0.761 |
| H3255 | 0.953 | 0.998 | 1.01 | 0.929 | 0.822 | 0.964 | 0.969 | 1.03 | 1.01 |
| HARA | 0.823 | 1.15 | 1.05 | 1.09 | 0.946 | 0.924 | 1.05 | 0.954 | 0.941 |
| HCC-15 | 0.928 | 1.11 | 0.975 | 1.02 | 0.842 | 1 | 0.978 | 0.957 | 0.963 |
| HCC-44 | 0.986 | 1.03 | 0.988 | 0.978 | 0.963 | 0.981 | 0.888 | 1 | 0.858 |
